The values below come from patent US11230526B1, “Cylcoalkenyl derivatives useful as agonists of the GPR120 and/or GPR40 receptors” (Janssen Pharmaceutica NV, priority 2018, dated 2022).

In test [1] the target is T1, Human GPR120 short form (Homo sapiens, UniProt Q5NUL3).
T1 construct: expressed in transfected cells
T1 sequence (Q5NUL3 1-361): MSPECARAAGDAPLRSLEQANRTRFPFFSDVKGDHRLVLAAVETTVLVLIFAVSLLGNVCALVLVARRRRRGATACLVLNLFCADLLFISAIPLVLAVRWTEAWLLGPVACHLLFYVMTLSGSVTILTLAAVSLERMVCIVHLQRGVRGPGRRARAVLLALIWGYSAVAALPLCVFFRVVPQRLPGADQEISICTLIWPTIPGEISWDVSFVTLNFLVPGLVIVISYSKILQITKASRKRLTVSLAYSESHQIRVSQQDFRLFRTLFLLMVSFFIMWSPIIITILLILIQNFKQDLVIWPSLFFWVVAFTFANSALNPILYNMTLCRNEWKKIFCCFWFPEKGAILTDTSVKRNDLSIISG
In words: Human GPR120 calcium flux assay, Procedure Calcium B (4200 cells/well). It is filed as cell-based. The procedure, abridged: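 Agonist EC50 came from a four-parameter fit of RFU (Fmax−Fmin) read over 300 s on FLIPR. Cells were HEK293 stably transfected with human GPR120 (NM_001195755.1) at 4200 per well, serum-starved 1 h and loaded with Fluo-4 NW dye with probenecid before ligand addition.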

Test [2] deals with T2, human GPR40 (Homo sapiens, UniProt O14842).
T2 construct: expressed in transfected cells
T2 sequence (O14842 whole entry): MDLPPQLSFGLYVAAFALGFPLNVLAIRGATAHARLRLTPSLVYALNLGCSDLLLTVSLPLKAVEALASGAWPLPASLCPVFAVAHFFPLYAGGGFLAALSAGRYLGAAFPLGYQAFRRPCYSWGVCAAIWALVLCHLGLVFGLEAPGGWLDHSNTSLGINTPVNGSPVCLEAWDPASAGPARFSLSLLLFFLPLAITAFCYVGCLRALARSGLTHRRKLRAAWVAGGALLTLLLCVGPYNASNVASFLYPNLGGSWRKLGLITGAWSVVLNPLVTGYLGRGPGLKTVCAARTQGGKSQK
In words: GPR40 calcium flux assay, human GPR40. The class given is cell-based. The following applies: HEK293 cells stably expressing GPR40; table does not say human or rat. In a few lines:
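Cells preincubated 1 h at 37° C. in HBSS, 20 mM HEPES, 0.1% BSA, then Fluo 8 calcium dye 30 min at 37° C. and 15 min at room temperature.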
A general note: A change in cytosolic calcium serves as a functional read-out for many receptors and channels.

As a reminder, the EC50 is the concentration needed to bring the measured effect to its halfway point. As to `O=C(O)CCc1ccc(OCC2=C(c3cc(Cl)ccc3F)CCC2)cc1Cl` [Compound 342, 3-[2-chloro-4-[[2-(5-chloro-2-fluoro-phenyl)cyclopenten-1-yl]methoxy]phenyl]Propanoic Acid], the EC50 in test [1] turned out to be 515 nM; in test [2], 322 nM.
The corresponding values for `Cc1ccc(F)c(C2=C(COc3ccc(CCC(=O)O)c(Cl)c3)CCC2)c1` [Compound 343, 3-[2-chloro-4-[[2-(2-fluoro-5-methyl-phenyl)cyclopenten-1-yl]methoxy]phenyl]Propanoic Acid] are 1380 nM and 1100 nM.
Consider `O=C(O)CCc1ccc(OCC2=C(c3cc(Cl)ccc3F)CCC2)cc1C(F)(F)F` [Compound 344, 3-[4-[[2-(5-chloro-2-fluoro-phenyl)cyclopenten-1-yl]methoxy]-2-(trifluoromethyl)phenyl]Propanoic Acid], for which the EC50 was determined as 520 nM in test [1] and 137 nM in test [2].
In the same order, the values of `Cc1ccc(CC2=C(COc3ccc(CCC(=O)O)c(C(F)(F)F)c3)CCC2)cc1` [Compound 345, 3-[4-[[2-(p-tolylmethyl)cyclopenten-1-yl]methoxy]-2-(trifluoromethyl)phenyl]Propanoic Acid] are 3020 nM and 67 nM.
The corresponding values for `Cc1ccc(CC2=C(COc3ccc(CCC(=O)O)cc3)CCC2)cc1` [Compound 346, 3-[4-[[2-(p-tolylmethyl)cyclopenten-1-yl]methoxy]phenyl]Propanoic Acid] are 1300 nM and 228 nM.
For the compound `Cc1ccc(CC2=C(COc3cc(C)c(CCC(=O)O)cc3F)CCC2)cc1` [Compound 347, 3-[5-fluoro-2-methyl-4-[[2-(p-tolylmethyl)cyclopenten-1-yl]methoxy]phenyl]Propanoic Acid], the results for the concentration for a half-maximal effect (EC50) in test [1] and in test [2] were 1800 nM and 897 nM, respectively.
For `Cc1ccc(CC2=C(COc3ccc(CCC(=O)O)c(Cl)c3)CCC2)cc1` [Compound 348, 3-[2-chloro-4-[[2-(p-tolylmethyl)cyclopenten-1-yl]methoxy]phenyl]Propanoic Acid], the EC50 in test [1] came out at 2360 nM; in test [2], 57 nM.
Regarding `O=C(O)CCc1ccc(OCC2=C(Cc3ccc(F)cc3)CCC2)cc1Cl` [Compound 349, 3-[2-chloro-4-[[2-[(4-fluorophenyl)methyl]cyclopenten-1-yl]methoxy]phenyl]Propanoic Acid], the half-maximal effective concentration (EC50) in test [1] was found to be 1900 nM; in test [2], 60 nM.
On to `Cc1cc(OCC2=C(Cc3ccc(F)cc3)CCC2)c(F)cc1CCC(=O)O` [Compound 350, 3-[5-fluoro-4-[[2-[(4-fluorophenyl)methyl]cyclopenten-1-yl]methoxy]-2-methyl-phenyl]Propanoic Acid], for which the values for the EC50 in test [1] and in test [2] were 1770 nM and 669 nM, respectively.
As for `O=C(O)CCc1ccc(OCC2=C(C3CC3)CCC2)cc1C(F)(F)F` [Compound 351, 3-[4-[(2-cyclopropylcyclopenten-1-yl)methoxy]-2-(trifluoromethyl)phenyl]Propanoic Acid], the EC50 is over 5000 nM in test [1] and 1230 nM in test [2].
In the same order, the values of `Cc1cc(OCC2=C(C3=CCCCC3)CCC2)c(F)cc1CCC(=O)O` [Compound 352, 3-[4-[[2-(cyclohexen-1-yl)cyclopenten-1-yl]methoxy]-5-fluoro-2-methyl-phenyl]Propanoic Acid] are over 5000 nM and over 10000 nM.
The corresponding values for `O=C(O)CCc1ccc(OCC2=C(Cc3ccc(F)cc3)CCC2)cc1C(F)(F)F` [Compound 353, 3-[4-[[2-[(4-fluorophenyl)methyl]cyclopenten-1-yl]methoxy]-2-(trifluoromethyl)phenyl]Propanoic Acid] are 1330 nM and 46 nM.
Regarding `O=C(O)CCc1ccc(OCC2=C(C3=CCCCC3)CCC2)cc1C(F)(F)F` [Compound 354, 3-[4-[[2-(cyclohexen-1-yl)cyclopenten-1-yl]methoxy]-2-(trifluoromethyl)phenyl]Propanoic Acid], the EC50 in test [1] is 1770 nM; in test [2], 825 nM.
On to `O=C(O)CCc1ccc(OCC2=C(C3=CCCCC3)CCC2)cc1Cl` [Compound 355, 3-[2-chloro-4-[[2-(cyclohexen-1-yl)cyclopenten-1-yl]methoxy]phenyl]Propanoic Acid], for which the concentration for a half-maximal effect (EC50) in test [1] is over 5000 nM; in test [2], 3690 nM.
As to `O=C(O)CCc1ccc(OCC2=C(Cc3ccc(Cl)cc3)CCC2)cc1Cl` [Compound 356, 3-[2-chloro-4-[[2-[(4-chlorophenyl)methyl]cyclopenten-1-yl]methoxy]phenyl]Propanoic Acid], the EC50 worked out at 2540 nM in test [1] and 68 nM in test [2].
In the same order, the values of `Cc1cc(OCC2=C(Cc3ccccc3)CC(F)(F)C2)c(F)cc1CCC(=O)O` [Compound 357, 3-[4-[(2-benzyl-4,4-difluoro-cyclopenten-1-yl)methoxy]-5-fluoro-2-methyl-phenyl]Propanoic Acid] are 664 nM and 653 nM.
For `O=C(O)CCc1ccc(OCC2=C(Cc3ccccc3)CC(F)(F)C2)cc1C(F)(F)F` [Compound 358, 3-[4-[(2-benzyl-4,4-difluoro-cyclopenten-1-yl)methoxy]-2-(trifluoromethyl)phenyl]Propanoic Acid], the EC50 in test [1] was 951 nM; in test [2] it was 65 nM.
For `O=C(O)CCc1ccc(OCC2=C(Cc3ccc(Cl)cc3)CCC2)cc1C(F)(F)F` [Compound 359, 3-[4-[[2-[(4-chlorophenyl)methyl]cyclopenten-1-yl]methoxy]-2-(trifluoromethyl)phenyl]Propanoic Acid], the concentration for a half-maximal effect (EC50) came to 3110 nM in test [1] and 81 nM in test [2].
In the case of `Cc1cc(OCC2=C(Cc3ccc(Cl)cc3)CCC2)c(F)cc1CCC(=O)O` [Compound 360, 3-[4-[[2-[(4-chlorophenyl)methyl]cyclopenten-1-yl]methoxy]-5-fluoro-2-methyl-phenyl]Propanoic Acid], the values for the EC50 in test [1] and in test [2] were over 5000 nM and 972 nM, respectively.
For the compound `O=C(O)CCc1ccc(OCC2=C(Cc3cccc(F)c3)CCC2)cc1C(F)(F)F` [Compound 361, 3-[4-[[2-[(3-fluorophenyl)methyl]cyclopenten-1-yl]methoxy]-2-(trifluoromethyl)phenyl]Propanoic Acid], the EC50 in test [1] was 3300 nM; in test [2] it was 131 nM.
The corresponding values for `O=C(O)CCc1ccc(OCC2=C(Cc3cccc(F)c3)CCC2)cc1Cl` [Compound 362, 3-[2-chloro-4-[[2-[(3-fluorophenyl)methyl]cyclopenten-1-yl]methoxy]phenyl]Propanoic Acid] are over 5000 nM and 159 nM.
`Cc1cc(OCC2=C(Cc3cccc(F)c3)CCC2)c(F)cc1CCC(=O)O` [Compound 363, 3-[5-fluoro-4-[[2-[(3-fluorophenyl)methyl]cyclopenten-1-yl]methoxy]-2-methyl-phenyl]Propanoic Acid]: the concentration giving a half-maximal response (EC50) was over 5000 nM in test [1] and 1700 nM in test [2].
As for `O=C(O)CCc1ccc(OCC2=C(Cc3ccccc3)CC(F)(F)C2)cc1Cl` [Compound 364, 3-[4-[(2-benzyl-4,4-difluoro-cyclopenten-1-yl)methoxy]-2-chloro-phenyl]Propanoic Acid], the values for the concentration giving a half-maximal response (EC50) in test [1] and in test [2] were 891 nM and 49 nM, respectively.
In the case of `CCCCC1=C(COc2ccc(CCC(=O)O)cc2)CCC1` [Compound 365], the results for the EC50 in test [1] and in test [2] were 496 nM and 991 nM, respectively.
For the compound `CC1CCC(c2ccccc2)=C1COc1ccc(CCC(=O)O)cc1` (stereo not drawn) [Compound 366, 3-[4-[(5-methyl-2-phenyl-cyclopenten-1-yl)methoxy]phenyl]Propanoic Acid], the EC50 in test [1] was 1140 nM; in test [2] it was over 10000 nM.
In the same order, the values of `CC1CCC(c2ccccc2)=C1COc1ccc(CCC(=O)O)c(C(F)(F)F)c1` (stereo not drawn) [Compound 367, 3-[4-[(5-methyl-2-phenyl-cyclopenten-1-yl)methoxy]-2-(trifluoromethyl)phenyl]Propanoic Acid] are 1140 nM and 1510 nM.
For `O=C(O)CCc1ccc(OCC2=C(CC3CCCCC3)CCC2)cc1C(F)(F)F` [Compound 369, 3-[4-[[2-(cyclohexylmethyl)cyclopenten-1-yl]methoxy]-2-(trifluoromethyl)phenyl]Propanoic Acid], the EC50 in test [1] was over 5000 nM; in test [2] it was 125 nM.
The corresponding values for `CCCCC1=C(COc2ccc(CCC(=O)O)c(C(F)(F)F)c2)CCC1` [Compound 370, 3-[4-[(2-butylcyclopenten-1-yl)methoxy]-2-(trifluoromethyl)phenyl]Propanoic Acid] are 1150 nM and 133 nM.
In the same order, the values of `O=C(O)CCc1ccc(OCC2=C(CCc3ccccc3)CCC2)cc1C(F)(F)F` [Compound 372, 3-[4-[(2-phenethylcyclopenten-1-yl)methoxy]-2-(trifluoromethyl)phenyl]Propanoic Acid] are 2350 nM and 197 nM.
In the case of `Cc1cc(OCC2=C(C3CC3)CCC2)c(F)cc1CCC(=O)O` [Compound 373, 3-[4-[(2-cyclopropylcyclopenten-1-yl)methoxy]-5-fluoro-2-methyl-phenyl]Propanoic Acid], the results for the concentration giving a half-maximal response (EC50) in test [1] and in test [2] were 1450 nM and 2380 nM, respectively.
